One test has as its system NCI-H146. Nature of the test: Proliferation inhibition of various cancer cells (PrestoBlue), NCI-H146. It is filed as cell-based. Conditions: Homo sapiens, Small cell lung cancer, 72 hours. On the procedure: (§1) The efficacies of compounds 41 and 86 of Formula (I) in inhibiting proliferation of eleven types of cancer cells were determined using PrestoBlue™ Cell Viability Reagent (ThermoFisher Scientific, USA). The eleven types of cancer cells are small cell lung cancer, non-small cell lung cancer, liver cancer, pancreatic cancer, breast cancer, colon cancer, prostate cancer, neuroblastoma, brain cancer, leukemia, and cholangiocarcinoma.
(§2) More specifically, […], i.e., NCI-H82 (ATCC® HTB-175), NCI-H446 (ATCC® HTB-171), NCI-H69 (ATCC® HTB-119), NCI-H146 (ATCC® HTB-173), NCI-H1792 (ATCC® CRL-5895), NCI-H1299 (ATCC® CRL-5803), SNU-398 (ATCC® CRL-2233), PSN-1 (ATCC® CRL-3211), MIA PaCa-2 (ATCC® CRL-1420), MDA-MB-231 (ATCC® HTB-26), LOVO (ATCC® CCL-229), COLO 205 (ATCC® CCL-222), PC-3 (ATCC® CRL-1435), SK-N-BE(2) (ATCC® CRL-2271), D341 Med (ATCC® HTB-187), K562 (ATCC® CCL-243), MOLM-13 (DSMZ-German Collection of Microorganisms and Cell Cultures GmbH, ACC No. 554), and SNU-478 (KCLB 00478), were seeded at a density of 4000-10000 cells per well in 96-well plates for 24 hours. The cancer cells were then treated with each compound at various concentrations (0-10 μM), followed by incubation for another 72 hours. IC50 values were computed based on duplicated 8-point titration.

A further test relates to NCI-H1792. The test is described as follows: Proliferation inhibition of various cancer cells (PrestoBlue), NCI-H1792. It is filed as cell-based. The following applies: Homo sapiens, Non-small cell lung cancer, 72 hours. How it is done:
as §1, §2

For a further test, the system named is K562. The test is described as follows: Proliferation inhibition of various cancer cells (PrestoBlue), K562. The following applies: Homo sapiens, Leukemia, 72 hours. It is filed as cell-based. On the procedure:
as §1, §2

The next test relates to NCI-H82. Nature of the test: Proliferation inhibition of various cancer cells (PrestoBlue), NCI-H82. It is filed as cell-based. Conditions: Homo sapiens, Small cell lung cancer, 72 hours. On the procedure:
as §1, §2

Another test concerns PSN-1. Nature of the test: Proliferation inhibition of various cancer cells (PrestoBlue), PSN-1. It is filed as cell-based. Conditions: Homo sapiens, PSN1; Pancreatic cancer; 72 hours. On the procedure:
as §1, §2

For another test, the system named is NCI-H1299. The test is described as follows: Proliferation inhibition of various cancer cells (PrestoBlue), NCI-H1299. It is filed as cell-based. Conditions: Homo sapiens, Non-small cell lung cancer, 72 hours. On the procedure: as §1, §2
A further test relates to D341 Med. The test is described as follows: Proliferation inhibition of various cancer cells (PrestoBlue), D341 Med. Conditions: Brain cancer, 72 hours. It is filed as cell-based. How it is done:
as §1, §2

For a further test, the system named is PC-3. Nature of the test: Proliferation inhibition of various cancer cells (PrestoBlue), PC-3. It is filed as cell-based. The following applies: Homo sapiens, Prostate cancer, 72 hours. On the procedure: as §1, §2
A further test has as its system MDA-MB-231. Nature of the test: Proliferation inhibition of various cancer cells (PrestoBlue), MDA-MB-231. It is filed as cell-based. Conditions: Homo sapiens, Breast cancer, 72 hours. How it is done: as §1, §2
For another test, the system named is cMYC. The test is described as follows: Western blot, cMYC protein level in NCI-H82 cells. It is filed as cell-based, human. The following applies: NCI-H82 (SCLC) cells; 50, 200, 500, 1000 nM; 24 hours; FIG. 1. On the procedure: Compounds 41 and 86, both covered by Formula (I), were tested to assess their efficacies in reducing the level of cMYC oncoprotein in a human small-cell-lung-cancer (“SCLC”) cell line NCI-H82 (ATCC® HTB-175, USA) and the level of MYCN oncoprotein in a human neuroblastoma cell line SK-N-BE(2) (ATCC® CRL-2271, USA) as follows.
NCI-H82 was maintained in RPMI1640 medium (ThermoFisher Scientific, USA) supplemented with 10% fetal bovine serum (FBS, HyClone, USA) and antibiotics. SK-N-BE(2) was maintained in Minimum Essential Medium (MEM, ThermoFisher Scientific, USA) supplemented with 10% FBS (HyClone, USA) and antibiotics. The cancer cells from each cell line were treated with each of compounds 41 and 86 at 4 different compound concentrations, i.e., 50 nM, 200 nM, 500 nM, and 1000 nM. After 24 hours, each cancer cell solution was washed with 1× phosphate buffered saline (PBS), lysed in 1× Laemmli protein sample buffer, and boiled at 100° C. for 10 minutes. Each lysate was separated by SDS-PAGE, transferred to polyvinylidene fluoride (PVDF, Millipore, USA) membrane, and blotted with antibodies. Primary antibodies used for Western blotting were cMYC (Cell Signaling, Cat No. 5605S), MYCN (Cell Signaling, 9405S), PARP-1 (Abcam, ab32378), and GAPDH (Genetex, GTX100118). […]
A general note: In western blotting, separated proteins are transferred to a membrane and probed.

The subject of test [1] is NCI-H446. Nature of the test: Small-cell-lung cancer cell proliferation inhibition assay (PrestoBlue), NCI-H446. It is filed as cell-based. The following applies: Homo sapiens, cMYC amplified SCLC cells, 72 hours. On the procedure: (§3) Small cell lung cancer cells NCI-H82 (ATCC HTB-175, cMYC amplified), NCI-H446 (ATCC® HTB-171, cMYC amplified), and NCI-H69 (ATCC® HTB-119, MYCN amplified) were seeded at the density of 5000-10000 cells per well in 96-well plates. After 24 hours, the cancer cells were treated with each compound at various concentrations (0-10 μM) and then incubated for another 72 hours. IC50 values were computed based on duplicated 8-point titration.

Test [2] deals with eleven types of cancer cells. Nature of the test: Proliferation inhibition of eleven types of cancer cells (summary by cancer type). It is filed as cell-based. How it is done: as §1, §2
Another test relates to SNU-398. Nature of the test: Proliferation inhibition of various cancer cells (PrestoBlue), SNU-398. It is filed as cell-based. Conditions: Homo sapiens, Liver cancer, 72 hours. How it is done: as §1, §2
For test [3], the system named is NCI-H446. Nature of the test: Proliferation inhibition of various cancer cells (PrestoBlue), NCI-H446. Conditions: Homo sapiens, Small cell lung cancer, 72 hours. It is filed as cell-based. On the procedure: as §1, §2
For the next test, the system named is Colo205. The test is described as follows: Proliferation inhibition of various cancer cells (PrestoBlue), Colo205. It is filed as cell-based. Conditions: Homo sapiens, COLO 205; Colon cancer; 72 hours. How it is done:
as §1, §2

In the next test the test system is NCI-H69. Nature of the test: Small-cell-lung cancer cell proliferation inhibition assay (PrestoBlue), NCI-H69. It is filed as cell-based. The following applies: Homo sapiens, MYCN amplified SCLC cells, 72 hours. On the procedure: as §3
The mark [4] stands for this setting: all eleven cancer types, read-out: IC50 in inhibiting proliferation of all the eleven types of cancer cells.
Setting [5] is: breast cancer, read-out: IC50 in inhibiting proliferation of cells.
Setting [6] is: cholangiocarcinoma, read-out: IC50 in inhibiting proliferation of cells.
Where [7] appears, read: non-small cell lung cancer, pancreatic cancer, and colon cancer, read-out: IC50 in inhibiting proliferation of cells.
The mark [8] stands for this setting: prostate cancer, read-out: IC50 in inhibiting proliferation of cells.
Setting [9] is: small-cell-lung cancer, liver cancer, neuroblastoma, brain cancer, and leukemia, read-out: IC50 in inhibiting proliferation of cells.

Where two headings read alike, the source gives them in different places.

As to `CCN1CCN(c2cc(Nc3cc(C)[nH]n3)nc(N[C@H]3CCN(C(=O)c4ccc(Cl)cc4F)C3)n2)CC1` [Compound 41], the IC50 in the test with NCI-H146 was below 2000 nM; with NCI-H1792, below 2000 nM; in the test with K562, below 1000 nM; in the test with NCI-H82, below 200 nM; in the test on PSN-1, below 2000 nM; with NCI-H1299, below 1000 nM. The IC50 in the test on D341 Med was below 200 nM; in the test with PC-3, below 10000 nM; in the test on MDA-MB-231, below 300 nM; in the test on NCI-H446 [1] it was below 1000 nM; in test [2] (setting [4]) it was below 10000 nM; in test [2] (setting [5]), below 300 nM. The IC50 is below 2000 nM in [2] (setting [6]); below 1000 nM in test [2] (setting [7]); below 10000 nM in [2] (setting [8]); below 200 nM in test [2] (setting [9]); below 200 nM with SNU-398; below 200 nM with NCI-H446 [3]. The same compound registered an IC50 with Colo205 below 1000 nM. The “protein level of cMYC” value in the test with cMYC was “greatly reduced”.
With `CCN1CCN(c2cc(Nc3cc(C)[nH]n3)nc(NC3CCN(C(=O)c4cccc(Cl)c4F)CC3)n2)CC1` [Compound 86], the IC50 was below 10000 nM in the test on NCI-H146; below 2000 nM in the test on NCI-H1792; below 1000 nM in the test on NCI-H69; below 1000 nM in the test with K562; below 300 nM in the test with NCI-H82; below 2000 nM with PSN-1. Further, the IC50 in the test with NCI-H1299 is below 1000 nM; in the test on D341 Med, below 300 nM; in the test on PC-3, below 10000 nM; in the test with MDA-MB-231 it was below 300 nM; in the test on NCI-H446 [1], below 1000 nM; in [2] (setting [4]) it was below 10000 nM. Moreover, the IC50 was below 300 nM in [2] (setting [5]); below 2000 nM in test [2] (setting [6]); below 1000 nM in test [2] (setting [7]); below 10000 nM in test [2] (setting [8]); below 200 nM in test [2] (setting [9]); below 200 nM in the test on SNU-398. For the same compound, the IC50 in the test with NCI-H446 [3] is below 200 nM; with Colo205, below 1000 nM. Moreover, the “protein level of cMYC” value in the test on cMYC is “greatly reduced”.

These data come from patent publication US12679827B2, “Pyrimidine compounds and their pharmaceutical uses” (National Health Research Institutes, priority 2020, dated 2026).
